Experimental data from paper PMC11802822, “Comprehensive safety and toxicity analysis of 2,2’-Bipyridine derivatives in combating MRSA biofilm formation and persistence” (Frontiers in Cellular and Infection Microbiology, 2025).
Values after ≈ are worked out from the molar mass of the structure shown.

How the values were obtained:
MTCC 737 persister cells = assay: Persister killing assay; type: cell-based, Staphylococcus aureus; conditions: S. aureus persisters
Protocol: To evaluate the persister-killing activity of 2,2’-Bipy derivatives, MTCC 737 and MRSA 831 cells were grown overnight to the stationary phase at 37°C ([Kim et al., 2018b]). […] The bacterial densities of persisters were recorded at OD600 at hourly intervals from 0 to 6 h.

MRSA 831 [1] = assay: Biofilm imaging by confocal laser scanning microscopy (SYTO 9/PI); type: cell-based, methicillin-resistant S. aureus; conditions: derivatives 100 µg/ml, 24 h
From the text: Untreated wells were used as a control. […] Using SYTO 9 and PI dyes. […] Two independent experiments were done in triplicate.

MTCC 737 [2] = assay: Neutropenic thigh infection model in mice; type: in vivo, Staphylococcus aureus; conditions: neutropenic BALB/c mice, MTCC 737 10^6 CFU/ml, oral 30 mg/kg, 48 h, vs untreated group
red blood cells = conditions: ref Chen et al., 2011; Papalia et al., 2021; cited from earlier work
S. aureus (MTCC737) [3] = assay: Agar well diffusion; conditions: Staphylococcus aureus, MTCC737
MRSA 831 (MRSA) = assay: Agar well diffusion; conditions: Staphylococcus aureus, MRSA
S. aureus (MTCC737) [4] = assay: Broth microdilution MIC; conditions: Staphylococcus aureus, MTCC737, 18 h, read-out: Minimum inhibitory concentration
MRSA 831 [5] = assay: Broth microdilution MIC; conditions: Staphylococcus aureus, MRSA, 18 h, read-out: Minimum inhibitory concentration
MTCC 737 [6] = assay: Transmission electron microscopy; conditions: S. aureus MTCC 737; 100 µg/ml, 12 h
MRSA 831 [7] = assay: Transmission electron microscopy; conditions: 100 µg/ml, 12 h
MRSA 831 [8] = assay: Neutropenic thigh infection model in mice; conditions: neutropenic BALB/c mice, MRSA 831 10^8 CFU/ml, oral 30 mg/kg, after 2 h and 24 h, vs untreated control
MTCC 737 [9] = assay: Biofilm imaging by confocal laser scanning microscopy (SYTO 9/PI); conditions: derivatives 100 µg/ml, 24 h

SMILES: CN[C@H](CC(C)C)C(=O)N[C@H]1C(=O)N[C@@H](CC(N)=O)C(=O)N[C@H]2C(=O)N[C@H]3C(=O)N[C@H](C(=O)N[C@H](C(=O)O)c4cc(O)cc(O)c4-c4cc3ccc4O)[C@H](O)c3ccc(c(Cl)c3)Oc3cc2cc(c3O[C@@H]2O[C@H](CO)[C@@H](O)[C@H](O)[C@H]2O[C@H]2C[C@](C)(N)[C@H](O)[C@H](C)O2)Oc2ccc(cc2Cl)[C@H]1O [Vancomycin, reference compound]
- Concentration showing similar activity on persister cell counts (MTCC 737 persister cells): 100 µg/mL
- Biofilm disruption (CLSM) (MRSA 831 [1]): effective biofilm disruption and severe cell damage
- Reduction in the bacterial load in thigh tissue (MTCC 737 [2]): approximately 1.9 log10
- Concentration up to which non-hemolytic (red blood cells): up to 32 µg/ml
- zone of inhibition at 50 µg/mL (S. aureus (MTCC737) [3]): 14 mm
- zone of inhibition at 50 µg/mL (MRSA 831 (MRSA)): 12 mm
- MIC (S. aureus (MTCC737) [4]): 6.25 µg/mL (≈ 4.31 µM)
- MIC (MRSA 831 [5]): 6.25 µg/mL (≈ 4.31 µM)
- Cell morphology (TEM) (MTCC 737 [6]): distorted morphology
- Cell morphology (TEM) (MRSA 831 [7]): distorted morphology
- Reduction in the bacterial load in thigh tissue (MRSA 831 [8]): approximately 1.9 log10
- Biofilm disruption (CLSM) (MTCC 737 [9]): effective biofilm disruption and severe cell damage
